Values of other authors, collected in US20210283075A1, “METHODS OF TREATING ATTENTION DEFICIT HYPERACTIVITY DISORDER” (Ovid Therapeutics, Inc., priority 2018, published 2021).

Columns and labels:
[1] = compared to lorazepam
[2] = compared to placebo
sigma-1 receptor = sigma-1 receptor (Homo sapiens, UniProt Q99720)
5-HT2C = target: T1, 5-HT2C (Homo sapiens, UniProt P28335)
T1 sequence (P28335 33-458): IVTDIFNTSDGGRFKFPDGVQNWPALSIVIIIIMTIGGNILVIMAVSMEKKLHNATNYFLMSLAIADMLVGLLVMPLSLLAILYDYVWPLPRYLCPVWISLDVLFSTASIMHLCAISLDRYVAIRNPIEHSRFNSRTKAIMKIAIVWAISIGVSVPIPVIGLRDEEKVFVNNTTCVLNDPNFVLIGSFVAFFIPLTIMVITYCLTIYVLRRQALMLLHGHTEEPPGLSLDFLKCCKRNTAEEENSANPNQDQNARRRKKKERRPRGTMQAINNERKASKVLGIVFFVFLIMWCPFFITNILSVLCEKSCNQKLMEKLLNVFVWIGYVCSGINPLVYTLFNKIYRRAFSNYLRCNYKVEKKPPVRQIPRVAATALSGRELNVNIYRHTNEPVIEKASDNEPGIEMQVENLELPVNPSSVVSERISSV

dopamine D3 = dopamine D3 (Homo sapiens, UniProt P35462)
dopamine D3, sequence (P35462 whole entry): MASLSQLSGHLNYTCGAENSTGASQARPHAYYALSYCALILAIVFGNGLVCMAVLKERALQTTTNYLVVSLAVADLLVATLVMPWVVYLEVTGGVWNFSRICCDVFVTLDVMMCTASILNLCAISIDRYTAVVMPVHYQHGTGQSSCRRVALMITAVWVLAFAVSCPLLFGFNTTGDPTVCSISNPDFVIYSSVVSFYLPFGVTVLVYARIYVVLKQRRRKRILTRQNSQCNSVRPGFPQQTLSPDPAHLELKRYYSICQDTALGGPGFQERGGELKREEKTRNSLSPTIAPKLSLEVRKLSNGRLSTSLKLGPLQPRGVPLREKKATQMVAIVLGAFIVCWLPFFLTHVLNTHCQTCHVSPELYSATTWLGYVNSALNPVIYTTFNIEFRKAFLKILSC

[3] = tested on: brain-derived neurotrophic factor (BDNF); settings: hypothalamus

sigma-1 receptor, sequence (Q99720 whole entry, species assumed): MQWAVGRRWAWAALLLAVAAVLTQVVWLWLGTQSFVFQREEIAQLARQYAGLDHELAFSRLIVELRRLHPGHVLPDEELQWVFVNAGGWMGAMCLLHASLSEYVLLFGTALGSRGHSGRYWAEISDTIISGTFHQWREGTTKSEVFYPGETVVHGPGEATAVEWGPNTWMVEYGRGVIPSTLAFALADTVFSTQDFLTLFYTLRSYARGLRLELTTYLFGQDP

- activity at sigma-1 receptor (sigma-1 receptor): sigma-1 receptor agonist
- activity at 5-HT2C (5-HT2C): 5-HT2C antagonist
- activity at dopamine D3 (dopamine D3): dopamine D3 agonist
Structure (SMILES): CCCCSc1ccc(C(SCCN(C)C)c2ccccc2)cc1 (stereo not shown) [Captodiamine, 2-[(4-butylsulfanylphenyl)-phenyl-methyl]sulfanyl-N,N-dimethylethanamine]
- concentration and dexterity when driving [1]: improved the concentration and dexterity
- tendency to drowsiness ([1]; when driving): without inducing a tendency to drowsiness
- severity of benzodiazepine withdrawal symptoms [2]: lower severity of benzodiazepine withdrawal symptoms
- BDNF protein levels [3]: increase
